Data taken from paper PMC9781827, “Isolation and Identification of Anti-Inflammatory Peptide from Goose Blood Hydrolysate to Ameliorate LPS-Mediated Inflammation and Oxidative Stress in RAW264.7 Macrophages” (Molecules, 2022).

What was measured:
IL-6 = IL-6 level by ELISA in culture medium, model of LPS-mediated RAW264.7 macrophage inflammation; assay type: cell-based; conditions: LPS group: LPS (1.0 μg/mL) alone, 24 h; mean ± S.D., n = 3
Procedure: The anti-inflammatory activity of the peptides was determined according to the methods of a previous study. The anti-inflammatory activity of different fractions was evaluated by measuring the levels of the inflammatory cytokines (TNF-α, IL-1β and IL-6) in a model of LPS-induced macrophage inflammation with ELISA kits (Jiangsu Enzyme marker Biotechnology Co., Ltd., Yancheng, China). […] A 20 mmol/L Tris-HCl (pH 8.0) solution was used as the start buffer and 20 mmol/L Tris-HCl/1 mol/L NaCl (pH 8.0) was used as elution buffer. Elution program: (1) wash with 5 column volumes of starting buffer; (2) elute with 10 column volumes of 50% elution buffer and 50% start buffer; (3) elute with 5 column volumes of 100% elution buffer. The above flow rates were 5 mL/min. The fractions were detected at 280 nm by an ultraviolet detector and collected by an automatic fraction collector.
The method of RAW264.7 macrophage culture and treatments were based on the study of Li et al.. […] Macrophages from passages 5 to 10 were selected to seed on 96-well culture plates at a density of 4 × 10^5 cells/well and cultured with different concentrations of LPS (0.5 μg/mL, 1.0 μg/mL and 2.0 μg/mL) for 24 h. The optimal concentration of LPS for inducing inflammation in the RAW264.7 macrophage was ensured according to cell viability. […] The ability of GBP to protect RAW264.7 macrophages was evaluated. […]

Keap-1, NrF2, HO-1 = test: Western blot of Keap-1, NrF2, HO-1 in RAW264.7 macrophages; assay type: cell-based; conditions: stimulation with LPS alone
Procedure: RAW264.7 macrophages were washed with cold PBS and homogenized with two small magnetic beads (2 mm) and 10× volume of RIPA buffer containing 1% protease inhibitors for 60 s. Then the supernatant was collected after centrifuging at 12,000× g for 10 min at 4 °C, which was the total protein solution. The concentration of protein in the total protein solution was measured by BCA kits. The protein concentration of the supernatant was diluted to 2.0 mg/mL and mixed with an equal volume of buffer (0.25 mol/L Tris-HCl buffer, pH 6.8, containing 4% SDS and 20% glycerol with 20 mmol/L 2-mercaptoethanol). The stacking gel and separating gel were made of 5% (w/v) and 10% (w/v) polyacrylamide, respectively. Electrophoresis was carried out at 80 V until the dye front reached the bottom of the stacking gel, and the gel was run at 120 V until the dye front reached the bottom of the separating gel (165-8001, Bio-Rad Mini-PROTEAN Tetra Electrophoresis System). The PVDF membrane was covered on the gel and transferred membrane at 300 mA for 30 min. The membrane was moved into a decolorization shaker with 5% skim milk (0.5% TBST) and blocked for 1 h at room temperature. […] The film was scanned and archived, processed and decolorized by Photoshop, and the optical density value of the target band was analysed by ImageJ software processing system.

lipopolysaccharide [LPS]
level of IL-6 (IL-6): 373.01 ± 12.49 pg/mL | protein expression level of Keap-1 (Keap-1, NrF2, HO-1): significantly increased | protein expression levels of NrF2 and HO-1 (Keap-1, NrF2, HO-1): decreased
